Measurements taken from US20130023585A1, “Neuraminidase Inhibitors” (TSRL, INC., priority 2010, published 2013).
Like-named read-outs stand apart in the source and are kept apart here. Marks after values point to notes of the source that are not given here.

Experiments:
[1] = cited from earlier work
[2] = test system: Influenza A/NWS/33 (H1N1); format: in vivo, BALB/c mice; details: for Survivors/Total: twice a day for 5 days, observed 21 days
[3] = mouse, in vivo, 10 mg/kg/day
[4] = test system: Flu A Duck/MN/1525/81 (H5N1); test: microbe, parasite or virus in culture; format: cell-based; details: Influenza A virus, H5N1, MDCK, read-out: 50% effective concentration (EC50)
[5] = test system: Solomon Islands/03/2006 (H1N1); test: microbe, parasite or virus in culture; format: cell-based; details: Influenza A virus, read-out: 50% effective concentration (EC50)
Brisbane/59/2007 (H1N1) = test: microbe, parasite or virus in culture; format: cell-based; details: Influenza A virus, read-out: 50% effective concentration (EC50)
influenza virus = details: versus oseltamivir carboxylate; cited from earlier work
Sichuan/379/99 = test: microbe, parasite or virus in culture; format: cell-based; details: unidentified influenza virus, read-out: 50% effective concentration (EC50)
[6] = test system: California/04/2009 (H1N1); test: microbe, parasite or virus in culture; format: cell-based; details: Influenza A virus, read-out: 50% effective concentration (EC50)
Victoria/3/75 (H3N2) = test: microbe, parasite or virus in culture; format: cell-based; details: Influenza A virus, read-out: 50% effective concentration (EC50)
NWS/33 (H1N1) = test: microbe, parasite or virus in culture; format: cell-based; details: Influenza A virus, read-out: 50% effective concentration (EC50)
in vivo = details: mouse
Flu B Florida/4/2006 = test: microbe, parasite or virus in culture; format: cell-based; details: unidentified influenza virus, read-out: 50% effective concentration (EC50)
[7] = test system: Flu A Vietnam/1203/2004 (H5N1) × A/Ann Arbor/6/60 (H1N1 core genes); test: microbe, parasite or virus in culture; format: cell-based; details: Influenza A virus, MDCK, read-out: 50% effective concentration (EC50)
Brisbane/10/2007 (H3N2) = test: microbe, parasite or virus in culture; format: cell-based; details: Influenza A virus, read-out: 50% effective concentration (EC50)
[8] = for Plasma concentration of Zanamivir: iv dose 1 mg/kg

CCOC(=O)C1=C[C@@H](OC(CC)CC)[C@H](NC(C)=O)[C@@H](NC(=N)N)C1
oral bioavailability ([1]; oral): approximately 2%

CCC(CC)OC1C=C(C(=O)OC(OC(=O)C(N)C(C)C)c2ccccc2)CC(NC(=N)N)C1NC(C)=O (mixture of isomers) [GOC-Benzyl-Val]
AUC (mouse, in vivo, iv, 1 mg/kg): 867 ± 110 ng·h/mL | CL (mouse, in vivo, iv, 1 mg/kg): 31 mL/h | T1/2 (mouse, in vivo, iv, 1 mg/kg): 1.15 h | Vz (mouse, in vivo, iv, 1 mg/kg): 50.8 mL | AUC (mouse, in vivo, po, 10 mg/kg): 1171 ± 357 ng·h/mL | CL (mouse, in vivo, po, 10 mg/kg): 195 mL/h | Cmax (mouse, in vivo, po, 10 mg/kg): 192 ± 48 ng/mL | T1/2 (mouse, in vivo, po, 10 mg/kg): 7.14 h | Tmax (mouse, in vivo, po, 10 mg/kg): 1.0 ± 0.0 h | Vz (mouse, in vivo, po, 10 mg/kg): 2014 mL

CCC(CC)OC1C=C(C(=O)OC(C)OC(=O)C(N)C(C)C)CC(NC(=N)N)C1NC(C)=O (mixture of isomers) [GOC-Me-Val]
T1/2 (mice, IV, 1 mg/kg): 1.05 h | AUC (mouse, in vivo, iv, 1 mg/kg): 730 ± 60 ng·h/mL | CL (mouse, in vivo, iv, 1 mg/kg): 39 mL/h | Vz (mouse, in vivo, iv, 1 mg/kg): 59.5 mL | AUC (mouse, in vivo, po, 10 mg/kg): 3205 ± 577 ng·h/mL | CL (mouse, in vivo, po, 10 mg/kg): 140 mL/h | Cmax (mouse, in vivo, po, 10 mg/kg): 561 ± 235 ng/mL | Vz (mouse, in vivo, po, 10 mg/kg): 276 mL | MDD ± SD (mean day of death of mice that died prior to day 21) ([2]; 0.1 mg/kg/day): 10.0 ± 1.3 | protective from the lethal infection ([2]; 0.1 mg/kg/day): inactive | Survivors/Total ([2]; 0.1 mg/kg/day per oral): 0/10 | MDD ± SD (mean day of death of mice that died prior to day 21) ([2]; 1 mg/kg/day): 10.7 ± 0.6 | protective from the lethal infection ([2]; 1 mg/kg/day): 70% | weight loss during the infection (FIG. 2) ([2]; 1 mg/kg/day): Severe weight loss | Survivors/Total ([2]; 1 mg/kg/day per oral): 7/10** | protective from the lethal infection ([2]; 10 mg/kg/day): 100% | Survivors/Total ([2]; 10 mg/kg/day per oral): 10/10** | Mean Weight Change Day 5 [3]: −0.2 grams | Mean Weight Change Day 5, % of initial body weight (in parenthesis) [3]: −0.5% | Mean Weight Change, day 7 [3]: −0.3 grams | Mean Weight Change, day 7, % of initial body weight (in parenthesis) [3]: −1.6% | Survivors/Total [3]: 5/5

CCC(CC)O[C@@H]1C=C(C(=O)O)C[C@H](NC(=N)N)[C@H]1NC(C)=O [GOC, 4-guanidinio oseltamivir carboxylate]
AUC (mouse, in vivo, po, 10 mg/kg): 327 ± 98 ng·h/mL | Cmax (mouse, in vivo, po, 10 mg/kg): 73 ± 30 ng/mL | T1/2 (mouse, in vivo, po, 10 mg/kg): 1.65 h | EC50 [4]: 1.2 nM | EC50 ([5]; H1N1, MDCK cells, 3 to 4 days): 4.2 nM | MDD ± SD (mean day of death of mice that died prior to day 21) ([2]; 0.1 mg/kg/day): 9.0 ± 1.0 | protective from the lethal infection ([2]; 0.1 mg/kg/day): not active | Survivors/Total ([2]; 0.1 mg/kg/day per oral): 0/10 | MDD ± SD (mean day of death of mice that died prior to day 21) ([2]; 1 mg/kg/day): 9.8 ± 1.2 | protective from the lethal infection ([2]; 1 mg/kg/day): not active | Survivors/Total ([2]; 1 mg/kg/day per oral): 1/10 | protective from the lethal infection ([2]; 10 mg/kg/day): 100% | weight loss during the infection (FIG. 2) ([2]; 10 mg/kg/day): Some weight loss | Survivors/Total ([2]; 10 mg/kg/day per oral): 10/10** | EC50 (Brisbane/59/2007 (H1N1); H1N1, MDCK cells, 3 to 4 days): 4 nM | times more potent in tissue culture of influenza virus replication (influenza virus): 10 times | oral bioavailability ([1]; oral): ~4.0% | Mean Weight Change Day 5 [3]: −0.3 grams | Mean Weight Change Day 5, % of initial body weight (in parenthesis) [3]: −2.1% | Mean Weight Change, day 7 [3]: −0.2 grams | Mean Weight Change, day 7, % of initial body weight (in parenthesis) [3]: −1.0% | EC50 (Sichuan/379/99; MDCK cells, 3 to 4 days): > 3200 nM | EC50 ([6]; H1N1, MDCK cells, 3 to 4 days): 16 nM | EC50 (Victoria/3/75 (H3N2); H3N2, MDCK cells, 3 to 4 days): 38 nM | EC50 (NWS/33 (H1N1); H1N1, MDCK cells, 3 to 4 days): < 32 nM | bioavailability (in vivo; 10 mg/kg, BA (bioavailability of GOC)): 4.3% | Vd (in vivo; iv, 1 mg/kg): 0.0678 L | clearance (in vivo; iv, 1 mg/kg): 0.883 mL/min | AUC (in vivo; iv, 1 mg/kg, mice, GOC in plasma): 541 ± 229 ng·h/mL | half-life (in vivo; iv, 1 mg/kg, T1/2, mice): 0.88 h | AUC (in vivo; po, 10 mg/kg): 232 ± 43 ng·h/mL | Cmax (in vivo; po, 10 mg/kg, Cmax): 43 ± 29 ng/mL | half-life (in vivo; po, 10 mg/kg, T1/2): 1.21 h | Tmax (in vivo; po, 10 mg/kg): 3 ± 1.2 h | Tmax (in vivo; po, 10 mg/kg, mice, PO (fasted), GOC in plasma): 1.3 ± 1 h | EC50 (Flu B Florida/4/2006; MDCK cells, 3 to 4 days): 460 nM | EC50 [7]: 0.28 nM | EC50 (Brisbane/10/2007 (H3N2); H3N2, MDCK cells, 3 to 4 days): > 320 nM

CCC(CC)O[C@@H]1C=C(C(=O)O)C[C@H](N)[C@H]1NC(C)=O [Oseltamivir Carboxylate, Oseltamivir carboxylate]
EC50 [4]: 150 nM | EC50 ([5]; H1N1, MDCK): > 320 nM | EC50 (Brisbane/59/2007 (H1N1); H1N1, MDCK): > 320 nM | oral bioavailability ([1]; oral): ~4.0% | EC50 (Sichuan/379/99; MDCK): > 3200 nM | EC50 ([6]; H1N1, MDCK): 300 nM | EC50 (Victoria/3/75 (H3N2); H3N2, MDCK): > 320 nM | EC50 (NWS/33 (H1N1); H1N1, MDCK): 580 nM | EC50 (Flu B Florida/4/2006; MDCK): > 3200 nM | EC50 [7]: 2.8 nM | EC50 (Brisbane/10/2007 (H3N2); H3N2, MDCK): > 320 nM

CCOC(=O)C1=C[C@@H](OC(CC)CC)[C@H](NC(C)=O)[C@@H](N)C1 [Oseltamivir]
MDD ± SD (mean day of death of mice that died prior to day 21) ([2]; 0.1 mg/kg/day): 9.7 ± 1.6 | protective from the lethal infection ([2]; 0.1 mg/kg/day): ineffective | Survivors/Total ([2]; 0.1 mg/kg/day per oral): 0/10 | protective from the lethal infection ([2]; 1 mg/kg/day): 100% | weight loss during the infection (FIG. 2) ([2]; 1 mg/kg/day): lost minimal weight | Survivors/Total ([2]; 1 mg/kg/day per oral): 10/10** | protective from the lethal infection ([2]; 10 mg/kg/day): 100% | Survivors/Total ([2]; 10 mg/kg/day per oral): 10/10** | Survivors/Total ([3]; BALB/c): 5/5 | Mean Weight Change Day 5 [3]: −0.3 grams | Mean Weight Change Day 5, % of initial body weight (in parenthesis) [3]: −1.6% | Mean Weight Change, day 7 [3]: −0.1 grams | Mean Weight Change, day 7, % of initial body weight (in parenthesis) [3]: −0.5%

CC(=O)N[C@H]1[C@H]([C@H](O)[C@H](O)CO)OC(C(=O)OC(OC(=O)[C@H](N)C(C)C)C(C)C)=C[C@@H]1NC(=N)N (stereo partly drawn) [ZAN-Isp-Val]
AUC ([8]; Oral, fasted mice, Zanamivir in plasma): 2177 (ng/ml) × hr | absorption after oral dosing ([8]; fasted animals): completely absorbed

CC(=O)N[C@H]1[C@H]([C@H](O)[C@H](O)CO)OC(C(=O)O)=C[C@@H]1N=C(N)N [Zanamivir]
oral bioavailability ([1]; in vivo, po): about 2% | Plasma concentration of Zanamivir ([8]; 0.03 hours): 4018.3 ng/mL | Plasma concentration of Zanamivir ([8]; 0.08 hours): 2487.5 ng/mL | Plasma concentration of Zanamivir ([8]; 0.25 hours): 633.8 ng/mL | Plasma concentration of Zanamivir ([8]; 0.50 hours): 212.0 ng/mL | Plasma concentration of Zanamivir ([8]; 1.00 hours): 78.6 ng/mL | Plasma concentration of Zanamivir ([8]; 2.00 hours): 14.0 ng/mL | AUC ([8]; mouse, in vivo, iv, 1 mg/kg): 202.4 (ng/ml) × hr
